Active and inactive are the calls of the source.
Assays:
[1] = Metabolic stability in mouse microsomes assessed as amount of parent compound remaining after 5 mins; type: ADME, Microsome; details: read-out: Stability
Mus musculus [2] = assay: Toxicity in mouse at 1 mg/kg, ip by Irwin test; type: organism-based; details: in vivo
[3] = target: C-C chemokine receptor type 5 (Homo sapiens) (UniProt P51681); assay: Displacement of [125I]-MIP-1beta from CCR5 receptor (unknown origin) at 1 uM
[4] = target: C-C chemokine receptor type 4 (Homo sapiens) (UniProt P51679); assay: Displacement of [125I]-TARC from CCR4 receptor (unknown origin) at 1 uM
[5] = target: Endothelin-1 receptor (Homo sapiens) (UniProt P25101); assay: Displacement of [125I]-endothelin-1 from endothelin ETA receptor (unknown origin) at 1 uM
[6] = target: Epidermal growth factor receptor (Homo sapiens) (UniProt P00533); assay: Displacement of [125I]-EGF from EGF receptor (unknown origin) at 1 uM
[7] = target: Adenosine receptor A1 (Homo sapiens) (UniProt P30542); assay: Displacement of [3H]-DPCPX from adenosine A1 receptor (unknown origin) at 1 uM
[8] = target: T1, Sigma intracellular receptor 2 (Rattus norvegicus, UniProt Q5U3Y7); assay: Displacement of [3H]-DTG from sigma2 receptor in rat liver membranes after 120 mins by liquid scintillation counting; type: cell membranes, Membrane
T1 sequence (Q5U3Y7 whole entry): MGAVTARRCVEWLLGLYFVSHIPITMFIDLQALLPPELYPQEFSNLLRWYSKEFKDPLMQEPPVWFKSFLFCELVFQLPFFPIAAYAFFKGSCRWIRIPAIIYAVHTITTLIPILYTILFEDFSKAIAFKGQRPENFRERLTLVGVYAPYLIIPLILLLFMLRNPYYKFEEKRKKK

Homo sapiens [9] = species on record: Homo sapiens; assay: Displacement of [3H]-CGP-54626 from […] GABAB receptor (unknown origin) at 1 uM
[10] = target: Platelet-activating factor receptor (Homo sapiens) (UniProt P25105); assay: Displacement of [3H]-PAF from platelet activating factor receptor (unknown origin) at 1 uM
[11] = Metabolic stability in human microsomes assessed as amount of parent compound remaining after 5 mins; type: ADME, Microsome; details: read-out: Stability
Rattus norvegicus = assay: Analgesic activity in rat assessed as inhibition of formalin-induced pain by measuring time spent licking injected paw in late phase (10 to 35 min) administered at 10 mg/kg by two-phase analgesic formalin assay; type: functional, organism-based
[12] = target: Beta-1 adrenergic receptor (Homo sapiens) (UniProt P08588); assay: Displacement of [125I]-cyanopindolol from adrenergic beta1 receptor (unknown origin) at 1 uM
[13] = target: B2 bradykinin receptor (Homo sapiens) (UniProt P30411); assay: Displacement of [3H]-bradykinin from bradykinin B2 receptor (unknown origin) at 1 uM
[14] = target: C-X-C chemokine receptor type 2 (Homo sapiens) (UniProt P25025); assay: Displacement of [125I]-IL-8 from CXCR2 receptor (unknown origin) at 1 uM
[15] = target: Glucocorticoid receptor (Homo sapiens) (UniProt P04150); assay: Displacement of [3H]-dexamethasone from glucocorticoid receptor (unknown origin) at 1 uM
[16] = target: D(3) dopamine receptor (Homo sapiens) (UniProt P35462); assay: Displacement of [3H]-sp iperone from dopamine D3 receptor (unknown origin) at 1 uM
[17] = target: Adenosine receptor A2a (Homo sapiens) (UniProt P29274); assay: Displacement of [3H]-CGS21680 from adenosine A2A receptor (unknown origin) at 1 uM
[18] = target: Histamine H3 receptor (Homo sapiens) (UniProt Q9Y5N1); assay: Displacement of [3H]-R(-)-alpha-methylhistamine from histamine H3 receptor (unknown origin) at 1 uM
Mus musculus [19] = assay: Toxicity in mouse assessed as diarrhea at 30 mg/kg, ip measured for 60 mins by Irwin test; type: organism-based; details: in vivo, 1 h
Mus musculus [20] = assay: Toxicity in mouse assessed as writhing at 100 mg/kg, ip by Irwin test; type: organism-based; details: in vivo
Mus musculus [21] = assay: Toxicity in mouse assessed as diarrhea at 100 mg/kg, ip by Irwin test; type: organism-based; details: in vivo
Mus musculus [22] = assay: Cognition enhancing effect in mouse assessed as reversal of scopolamine-induced amnesia at 30 mg/kg, ip; type: functional, organism-based
[23] = target: Metabotropic glutamate receptor 5 (Homo sapiens) (UniProt P41594); assay: Displacement of [3H]-quisqulic acid from metabotropic glutamate receptor 5 (unknown origin) at 1 uM
Homo sapiens [24] = species on record: Homo sapiens; assay: Displacement of [3H]-CGP-39653 from glutamate […] receptor (unknown origin) at 1 uM
Albumin = Albumin (Homo sapiens, UniProt P02768); assay: Binding affinity to human serum albumin at 60 uM; type: ADME; details: isolated protein
[25] = target: B1 bradykinin receptor (Homo sapiens) (UniProt P46663); assay: Displacement of [3H]-(Des-Arg10)-Kallidin from bradykinin B1 receptor (unknown origin) at 1 uM
[26] = target: Mu-type opioid receptor (Homo sapiens) (UniProt P35372); assay: Displacement of [3H]-d iprenorphine from mu opioid receptor (unknown origin) at 1 uM
CYP2D6 = CYP2D6 (Homo sapiens, UniProt P10635); assay: Inhibition on CYP2D6 (unknown origin) at 1 uM; type: ADME
CYP2C9 = CYP2C9 (Homo sapiens, UniProt P11712); assay: Inhibition on CYP2C9 (unknown origin) at 1 uM; type: ADME
[27] = target: Estrogen receptor (Homo sapiens) (UniProt P03372); assay: Displacement of [3H]-estradiol from estrogen ERalpha receptor (unknown origin) at 1 uM
[28] = target: D(1A) dopamine receptor (Homo sapiens) (UniProt P21728); assay: Displacement of [3H]-SCH-23390 from dopamine D1 receptor (unknown origin) at 1 uM

Chain of Histamine H3 receptor (Homo sapiens) (Q9Y5N1 whole entry): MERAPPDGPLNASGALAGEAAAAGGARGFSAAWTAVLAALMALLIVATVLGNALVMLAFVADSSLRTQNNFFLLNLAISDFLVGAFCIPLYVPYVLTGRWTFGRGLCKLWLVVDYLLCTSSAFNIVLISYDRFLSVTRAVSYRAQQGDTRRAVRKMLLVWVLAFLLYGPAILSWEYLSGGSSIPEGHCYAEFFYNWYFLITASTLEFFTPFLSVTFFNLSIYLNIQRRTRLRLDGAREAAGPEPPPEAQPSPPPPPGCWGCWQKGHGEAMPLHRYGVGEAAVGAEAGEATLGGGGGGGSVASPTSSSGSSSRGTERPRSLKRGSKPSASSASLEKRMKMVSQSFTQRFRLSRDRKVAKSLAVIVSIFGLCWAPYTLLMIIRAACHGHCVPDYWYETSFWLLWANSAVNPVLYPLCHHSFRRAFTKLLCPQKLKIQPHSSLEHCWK
Chain of Glucocorticoid receptor (Homo sapiens) (P04150 whole entry): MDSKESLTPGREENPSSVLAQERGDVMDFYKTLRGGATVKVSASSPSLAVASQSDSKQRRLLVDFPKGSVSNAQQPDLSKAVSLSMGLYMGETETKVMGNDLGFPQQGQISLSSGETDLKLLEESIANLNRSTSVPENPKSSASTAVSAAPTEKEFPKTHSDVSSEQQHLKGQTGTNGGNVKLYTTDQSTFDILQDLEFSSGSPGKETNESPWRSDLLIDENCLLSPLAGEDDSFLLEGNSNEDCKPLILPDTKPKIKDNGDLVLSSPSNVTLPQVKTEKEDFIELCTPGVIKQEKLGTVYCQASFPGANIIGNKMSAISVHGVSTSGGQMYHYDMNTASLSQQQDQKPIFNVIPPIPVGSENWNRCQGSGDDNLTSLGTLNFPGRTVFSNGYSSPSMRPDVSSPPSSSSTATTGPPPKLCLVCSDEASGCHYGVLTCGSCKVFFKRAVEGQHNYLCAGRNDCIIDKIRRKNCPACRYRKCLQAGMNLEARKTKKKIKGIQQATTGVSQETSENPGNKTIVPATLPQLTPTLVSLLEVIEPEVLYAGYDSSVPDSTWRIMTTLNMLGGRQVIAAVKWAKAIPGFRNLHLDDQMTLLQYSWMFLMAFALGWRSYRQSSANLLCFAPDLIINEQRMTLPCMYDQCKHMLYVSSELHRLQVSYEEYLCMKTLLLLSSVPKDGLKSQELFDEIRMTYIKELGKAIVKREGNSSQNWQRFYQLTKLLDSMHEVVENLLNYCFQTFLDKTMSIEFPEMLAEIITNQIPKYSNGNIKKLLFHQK
Chain of CYP2C9 (P11712 whole entry): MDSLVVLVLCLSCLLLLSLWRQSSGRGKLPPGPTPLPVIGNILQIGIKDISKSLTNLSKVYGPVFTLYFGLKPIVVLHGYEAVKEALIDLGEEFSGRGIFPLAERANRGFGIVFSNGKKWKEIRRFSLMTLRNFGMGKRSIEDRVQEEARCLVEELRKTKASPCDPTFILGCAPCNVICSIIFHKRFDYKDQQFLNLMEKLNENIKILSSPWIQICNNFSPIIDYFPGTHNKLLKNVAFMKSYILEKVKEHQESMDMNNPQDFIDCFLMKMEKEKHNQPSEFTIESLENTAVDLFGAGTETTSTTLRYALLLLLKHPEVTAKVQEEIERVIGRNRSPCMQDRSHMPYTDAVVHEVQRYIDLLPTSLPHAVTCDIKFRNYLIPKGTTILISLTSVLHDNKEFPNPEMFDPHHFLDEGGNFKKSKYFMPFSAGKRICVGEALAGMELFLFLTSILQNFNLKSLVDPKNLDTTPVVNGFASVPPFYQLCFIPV
Chain of C-C chemokine receptor type 4 (Homo sapiens) (P51679 whole entry): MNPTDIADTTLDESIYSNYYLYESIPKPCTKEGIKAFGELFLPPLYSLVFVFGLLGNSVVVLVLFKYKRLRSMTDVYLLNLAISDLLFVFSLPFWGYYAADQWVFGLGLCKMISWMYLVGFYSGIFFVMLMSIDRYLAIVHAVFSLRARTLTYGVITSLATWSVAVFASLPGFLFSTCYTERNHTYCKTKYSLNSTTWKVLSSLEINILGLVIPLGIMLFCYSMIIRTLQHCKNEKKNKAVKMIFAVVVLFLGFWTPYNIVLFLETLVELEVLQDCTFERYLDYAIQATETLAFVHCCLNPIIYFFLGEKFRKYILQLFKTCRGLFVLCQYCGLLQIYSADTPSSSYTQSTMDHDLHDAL
Chain of D(3) dopamine receptor (Homo sapiens) (P35462 whole entry): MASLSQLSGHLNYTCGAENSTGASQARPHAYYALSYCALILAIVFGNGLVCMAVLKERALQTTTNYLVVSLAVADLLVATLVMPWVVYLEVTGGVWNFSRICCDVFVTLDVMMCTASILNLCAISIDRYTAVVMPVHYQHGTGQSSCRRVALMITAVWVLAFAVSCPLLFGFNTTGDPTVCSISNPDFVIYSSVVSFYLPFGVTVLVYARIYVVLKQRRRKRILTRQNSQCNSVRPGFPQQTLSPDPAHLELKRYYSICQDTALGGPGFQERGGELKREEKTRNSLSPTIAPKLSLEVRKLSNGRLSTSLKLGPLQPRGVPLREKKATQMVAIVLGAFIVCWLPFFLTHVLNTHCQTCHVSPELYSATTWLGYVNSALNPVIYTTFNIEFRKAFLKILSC
Chain of Adenosine receptor A2a (Homo sapiens) (P29274 whole entry): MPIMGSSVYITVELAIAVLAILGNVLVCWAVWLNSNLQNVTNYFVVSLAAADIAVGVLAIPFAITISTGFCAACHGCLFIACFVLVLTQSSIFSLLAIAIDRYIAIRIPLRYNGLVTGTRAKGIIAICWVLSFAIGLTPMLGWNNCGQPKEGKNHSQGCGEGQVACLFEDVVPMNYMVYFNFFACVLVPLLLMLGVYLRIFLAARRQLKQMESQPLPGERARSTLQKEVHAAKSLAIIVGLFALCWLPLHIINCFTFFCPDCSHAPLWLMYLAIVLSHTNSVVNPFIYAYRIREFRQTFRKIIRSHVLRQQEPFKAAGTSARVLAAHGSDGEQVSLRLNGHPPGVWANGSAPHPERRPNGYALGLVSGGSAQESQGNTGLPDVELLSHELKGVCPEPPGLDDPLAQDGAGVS
Chain of CYP2D6 (P10635 whole entry): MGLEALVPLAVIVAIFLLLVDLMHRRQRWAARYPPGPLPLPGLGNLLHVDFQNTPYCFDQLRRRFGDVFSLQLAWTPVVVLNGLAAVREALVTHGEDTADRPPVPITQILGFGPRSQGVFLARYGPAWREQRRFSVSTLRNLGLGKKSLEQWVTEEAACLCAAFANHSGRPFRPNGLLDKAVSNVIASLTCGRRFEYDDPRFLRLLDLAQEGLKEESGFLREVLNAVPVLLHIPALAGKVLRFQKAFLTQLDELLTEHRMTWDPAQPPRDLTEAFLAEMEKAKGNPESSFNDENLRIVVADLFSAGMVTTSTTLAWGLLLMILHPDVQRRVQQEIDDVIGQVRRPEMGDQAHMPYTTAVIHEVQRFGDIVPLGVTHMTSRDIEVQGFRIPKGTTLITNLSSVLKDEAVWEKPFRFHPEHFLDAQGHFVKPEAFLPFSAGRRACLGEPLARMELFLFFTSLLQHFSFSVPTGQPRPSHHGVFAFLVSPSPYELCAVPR
Chain of Epidermal growth factor receptor (Homo sapiens) (P00533 whole entry): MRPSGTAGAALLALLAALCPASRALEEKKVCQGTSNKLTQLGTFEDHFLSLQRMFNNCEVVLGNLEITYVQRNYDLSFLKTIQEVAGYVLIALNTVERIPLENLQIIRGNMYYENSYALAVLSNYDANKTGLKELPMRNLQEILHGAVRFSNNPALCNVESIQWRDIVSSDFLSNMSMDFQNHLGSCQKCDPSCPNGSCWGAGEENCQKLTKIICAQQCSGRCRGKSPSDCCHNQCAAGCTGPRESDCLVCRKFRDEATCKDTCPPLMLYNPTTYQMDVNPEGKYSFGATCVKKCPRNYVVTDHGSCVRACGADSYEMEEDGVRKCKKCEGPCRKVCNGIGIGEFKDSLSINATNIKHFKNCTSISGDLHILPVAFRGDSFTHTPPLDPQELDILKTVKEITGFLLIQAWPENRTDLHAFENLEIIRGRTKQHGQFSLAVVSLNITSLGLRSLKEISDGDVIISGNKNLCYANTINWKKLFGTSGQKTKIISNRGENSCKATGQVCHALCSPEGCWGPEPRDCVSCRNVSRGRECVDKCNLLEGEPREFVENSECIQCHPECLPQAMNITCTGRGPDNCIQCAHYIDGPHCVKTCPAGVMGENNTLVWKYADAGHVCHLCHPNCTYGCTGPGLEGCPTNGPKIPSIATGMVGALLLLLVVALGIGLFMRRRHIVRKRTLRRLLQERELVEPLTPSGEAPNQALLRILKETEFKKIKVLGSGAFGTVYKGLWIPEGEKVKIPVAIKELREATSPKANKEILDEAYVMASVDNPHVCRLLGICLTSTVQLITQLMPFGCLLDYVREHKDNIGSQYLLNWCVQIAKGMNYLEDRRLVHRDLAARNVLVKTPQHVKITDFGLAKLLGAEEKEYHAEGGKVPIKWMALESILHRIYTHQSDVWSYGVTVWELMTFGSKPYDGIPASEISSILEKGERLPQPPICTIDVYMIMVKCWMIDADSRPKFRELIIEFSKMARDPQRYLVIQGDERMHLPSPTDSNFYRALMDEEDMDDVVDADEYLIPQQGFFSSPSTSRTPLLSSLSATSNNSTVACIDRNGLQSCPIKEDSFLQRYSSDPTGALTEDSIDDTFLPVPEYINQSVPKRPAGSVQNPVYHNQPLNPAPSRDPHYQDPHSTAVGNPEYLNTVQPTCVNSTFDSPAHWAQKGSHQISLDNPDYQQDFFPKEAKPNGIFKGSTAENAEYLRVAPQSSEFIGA
Chain of Adenosine receptor A1 (Homo sapiens) (P30542 whole entry): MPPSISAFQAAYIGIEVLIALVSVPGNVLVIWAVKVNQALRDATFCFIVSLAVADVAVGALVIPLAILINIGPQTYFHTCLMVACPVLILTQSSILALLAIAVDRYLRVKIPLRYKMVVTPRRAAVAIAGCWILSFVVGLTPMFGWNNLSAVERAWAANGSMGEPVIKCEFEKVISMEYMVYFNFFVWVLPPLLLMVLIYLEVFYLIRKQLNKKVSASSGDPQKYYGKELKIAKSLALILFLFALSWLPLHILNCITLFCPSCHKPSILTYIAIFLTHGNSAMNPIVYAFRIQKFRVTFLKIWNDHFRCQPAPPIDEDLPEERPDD

COc1ccc(CN2CCCN(Cc3ccccc3)[C@@H](C)C2)cc1
46 nM: Ki [8]
0%: inhibition at 1 µM (CYP2C9)
inactive: inhibition [3] | inhibition [4] | inhibition [5] | inhibition [6] | inhibition [7] | inhibition (Homo sapiens [9]) | inhibition [10] | inhibition [12] | inhibition [13] | inhibition [14] | inhibition [15] | inhibition [16] | inhibition [17] | inhibition [18] | inhibition [23] | inhibition (Homo sapiens [24]) | inhibition [25] | inhibition [26] | inhibition [27] | inhibition [28]
60%: inhibition at 1 µM (CYP2D6)
1.6%: PB (Albumin)
Non-Toxic: Activity (Mus musculus [2])
active: Activity (Rattus norvegicus) | Activity (Mus musculus [22])
< 50%: remaining at 5 min [1] | remaining at 5 min [11]
Toxic: Activity (Mus musculus [19]) | Activity (Mus musculus [20]) | Activity (Mus musculus [21])

From ChEMBL document CHEMBL4043136, “Chiral-pool synthesis of 1,2,4-trisubstituted 1,4-diazepanes as novel σ1 receptor ligands” (Bioorg Med Chem, 2017)
